In the supplement of paper PMC10307832:

Assays:
Assay in all cases: relative viability (nuclei count vs DMSO), 5 days (fraction); higher = more cells survive
Wnt-C59 + OSI-027 = compound: CC1=NC=CC(=C1)C2=CC=C(C=C2)CC(=O)NC3=CC=C(C=C3)C4=CN=CC=C4 [Wnt-C59] + COc1cccc2cc(-c3nc([C@H]4CC[C@H](C(=O)O)CC4)n4ncnc(N)c34)[nH]c12 [OSI-027] (partner 0.5 µM)
Summary of the method: (§1)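 Lung cancer cell lines were seeded in 1536-well plates and dosed by pin tool the next day, with either a single drug or a fixed anchor-drug dose combined with five library-drug doses (not always all listed) spaced in √10 steps. Five days later, one step fixed the cells and stained their nuclei (final 0.05% Triton X-100, 1% formaldehyde, 1 ug/ml Hoechst), and nuclei were counted on 4× images. Relative viability is the nuclei count in treated wells divided by the count in vehicle wells, and each value is the median of duplicate plates.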

Wnt-C59 + Pictilisib = compound: CC1=NC=CC(=C1)C2=CC=C(C=C2)CC(=O)NC3=CC=C(C=C3)C4=CN=CC=C4 [Wnt-C59] + CS(=O)(=O)N1CCN(Cc2cc3nc(-c4cccc5[nH]ncc45)nc(N4CCOCC4)c3s2)CC1 [Pictilisib] (partner 1 µM)
Summary of the method: as §1

Lapatinib + Pictilisib = compound: CS(=O)(=O)CCNCc1ccc(-c2ccc3ncnc(Nc4ccc(OCc5cccc(F)c5)c(Cl)c4)c3c2)o1 [Lapatinib] + CS(=O)(=O)N1CCN(Cc2cc3nc(-c4cccc5[nH]ncc45)nc(N4CCOCC4)c3s2)CC1 [Pictilisib] (partner 1 µM)
Summary of the method: as §1

Lapatinib + Linsitinib = compound: CS(=O)(=O)CCNCc1ccc(-c2ccc3ncnc(Nc4ccc(OCc5cccc(F)c5)c(Cl)c4)c3c2)o1 [Lapatinib] + C[C@]1(O)C[C@@H](c2nc(-c3ccc4ccc(-c5ccccc5)nc4c3)c3c(N)nccn32)C1 [Linsitinib] (partner 1 µM)
Summary of the method: as §1

Cell Line | relative viability (Wnt-C59 + OSI-027; first compound 0.001 µM) | relative viability (Wnt-C59 + OSI-027; first compound 0.01 µM) | relative viability (Wnt-C59 + OSI-027; first compound 0.03162 µM) | relative viability (Wnt-C59 + OSI-027; first compound 0.1 µM) | relative viability (Wnt-C59 + Pictilisib; first compound 0.001 µM) | relative viability (Wnt-C59 + Pictilisib; first compound 0.01 µM) | relative viability (Wnt-C59 + Pictilisib; first compound 0.03162 µM) | relative viability (Wnt-C59 + Pictilisib; first compound 0.1 µM) | relative viability (Lapatinib + Pictilisib; first compound 0.02 µM) | relative viability (Lapatinib + Pictilisib; first compound 0.06325 µM) | relative viability (Lapatinib + Pictilisib; first compound 0.2 µM) | relative viability (Lapatinib + Pictilisib; first compound 0.6325 µM) | relative viability (Lapatinib + Pictilisib; first compound 2 µM) | relative viability (Lapatinib + Linsitinib; first compound 0.02 µM) | relative viability (Lapatinib + Linsitinib; first compound 0.06325 µM) | relative viability (Lapatinib + Linsitinib; first compound 0.2 µM) | relative viability (Lapatinib + Linsitinib; first compound 0.6325 µM) | relative viability (Lapatinib + Linsitinib; first compound 2 µM)
NCI-H441 | 0.754 | 0.616 | 0.718 | 0.568 | 0.557 | 0.428 | 0.592 | 0.573 | 0.332 | 0.417 | 0.431 | 0.422 | 0.453 | 0.377 | 0.659 | 0.494 | 0.457 | 0.593
NCI-H1437 | 0.859 | 0.927 | 0.859 | 0.911 | 0.531 | 0.617 | 0.467 | 0.479 | 0.5 | 0.314 | 0.386 | 0.482 | 0.422 | 0.898 | 0.968 | 1.05 | 0.864 | 0.875
BEN | 0.256 | 0.309 | 0.306 | 0.305 | 0.524 | 0.667 | 0.613 | 0.596 | 0.412 | 0.577 | 0.53 | 0.519 | 0.505 | 0.91 | 0.858 | 0.878 | 0.769 | 0.8
LOU-NH91 | 0.76 | 0.571 | 0.718 | 0.738 | 0.541 | 0.577 | 0.508 | 0.565 | 0.395 | 0.451 | 0.425 | 0.513 | 0.447 | 0.861 | 0.761 | 0.753 | 0.637 | 0.464
PC-3 [JPC-3] | 0.83 | 0.738 | 0.83 | 0.773 | 0.832 | 0.765 | 0.822 | 0.72 | – | 0.687 | 0.621 | 0.769 | 0.512 | – | 1.01 | 0.993 | 0.994 | 0.873
NCI-H1355 | 0.446 | 0.302 | 0.366 | 0.417 | 0.486 | 0.325 | 0.38 | 0.393 | – | 0.419 | 0.496 | 0.499 | 0.285 | – | 0.745 | 0.782 | 0.792 | 0.526
NCI-H520 | 0.256 | 0.339 | 0.3 | 0.252 | 0.247 | 0.293 | 0.329 | 0.291 | 0.308 | 0.285 | 0.269 | 0.332 | 0.348 | 0.9 | 0.799 | 1.04 | 0.992 | 1.16
SK-LU-1 | 0.406 | 0.283 | 0.39 | 0.364 | 0.476 | 0.558 | 0.638 | 0.559 | – | 0.504 | 0.634 | 0.754 | 0.57 | – | 0.783 | 1.19 | 1.01 | 1.24
NCI-H2228 | 0.665 | 0.484 | 0.596 | 0.548 | 0.479 | 0.505 | 0.573 | 0.252 | 0.51 | 0.321 | 0.567 | 0.403 | 0.259 | 0.662 | 0.51 | 0.721 | 0.881 | 0.891
NCI-H358 | 0.838 | 0.769 | 0.908 | 0.767 | 0.311 | 0.345 | 0.314 | 0.354 | 0.334 | – | 0.301 | 0.304 | 0.309 | 0.548 | – | 0.512 | 0.329 | 0.277
EKVX | 0.728 | 0.574 | 0.648 | 0.565 | 0.428 | 0.362 | 0.394 | 0.344 | 0.41 | 0.322 | 0.376 | 0.345 | 0.177 | 0.922 | 0.757 | 0.956 | 0.579 | 0.179
HCC-78 | 0.389 | 0.364 | 0.366 | 0.411 | 0.22 | 0.185 | 0.226 | 0.257 | – | 0.265 | 0.196 | 0.21 | 0.208 | – | 0.383 | 0.461 | 0.441 | 0.448
NCI-H2085 | 0.837 | 0.569 | 0.747 | 0.77 | 0.502 | 0.449 | 0.41 | 0.45 | 0.389 | 0.454 | 0.553 | 0.54 | 0.45 | 0.919 | 0.89 | 0.811 | 0.813 | 0.62
NCI-H23 | 0.634 | 0.499 | 0.781 | 0.578 | 0.426 | 0.454 | 0.467 | 0.423 | – | – | 0.506 | 0.482 | 0.483 | – | – | 0.508 | 0.588 | 0.462
NCI-H647 | 0.644 | 0.763 | 0.779 | 0.676 | 0.35 | 0.374 | 0.39 | 0.429 | – | 0.435 | – | 0.364 | 0.431 | 1.21 | 1.17 | 1.37 | 1.1 | 0.995
NCI-H1395 | 0.61 | 0.661 | 0.717 | 0.727 | 0.656 | 0.608 | 0.655 | 0.664 | – | 0.66 | 0.527 | 0.696 | 0.583 | – | 1.01 | 1.03 | 1.03 | 1.01
COR-L 105 | 0.916 | 0.696 | 0.635 | 0.632 | 0.368 | 0.315 | 0.413 | 0.446 | 0.33 | 0.329 | 0.35 | 0.419 | 0.307 | 0.796 | 0.772 | 0.954 | 0.703 | 0.272
NCI-H1651 | 0.767 | 0.646 | 0.696 | 0.709 | 0.601 | 0.584 | 0.541 | 0.561 | 0.561 | 0.472 | 0.526 | 0.613 | 0.596 | 0.946 | 0.884 | 0.922 | 0.846 | 0.9
PC-14 | 1.01 | 0.897 | 1.18 | 0.731 | 0.761 | 0.665 | 0.715 | 0.553 | 0.543 | 0.641 | 0.768 | 0.804 | 0.121 | 0.86 | 0.929 | 0.885 | 0.904 | 0.644
